Source: ChEMBL document CHEMBL5046279, “Discovery of a Partial Glucokinase Activator Clinical Candidate: Diethyl ((3-(3-((5-(Azetidine-1-carbonyl)pyrazin-2-yl)oxy)-5-isopropoxybenzamido)-1H-pyrazol-1-yl)methyl)phosphonate (BMS-820132)” (J Med Chem, 2022)
Values after ≈ are worked out from the molar mass of the structure shown.

Experiments:
Hexokinase-4 [1] = molecular target: T1, Hexokinase-4 (Homo sapiens, UniProt P35557); assay: Activation of recombinant full length human liver glucokinase expressed in Escherichia coli incubated for 10 mins by plate reader analysis
T1 sequence (P35557 whole entry): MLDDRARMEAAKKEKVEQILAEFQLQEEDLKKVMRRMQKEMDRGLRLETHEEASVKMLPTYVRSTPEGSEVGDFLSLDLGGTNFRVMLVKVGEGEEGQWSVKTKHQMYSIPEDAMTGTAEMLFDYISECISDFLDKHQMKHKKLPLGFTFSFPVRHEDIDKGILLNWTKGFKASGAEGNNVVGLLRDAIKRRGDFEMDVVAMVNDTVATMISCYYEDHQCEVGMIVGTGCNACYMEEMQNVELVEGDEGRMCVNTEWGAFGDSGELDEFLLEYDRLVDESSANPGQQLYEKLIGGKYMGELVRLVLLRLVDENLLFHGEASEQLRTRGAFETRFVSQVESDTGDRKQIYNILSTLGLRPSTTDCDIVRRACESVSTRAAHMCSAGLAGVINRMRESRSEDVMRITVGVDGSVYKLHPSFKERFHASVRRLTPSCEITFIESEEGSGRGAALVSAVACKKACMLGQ

[2] = Aqueous solubility of the compound at pH 6.5 using amorphous form of sample; assay type: physicochemical; details: aqueous solution
[3] = Microsomal stability in human liver microsomes assessed as parent compound remaining at 0.5 uM measured after 10 mins in presence of NADPH; assay type: ADME, Microsome; details: read-out: Stability
[4] = molecular target: Voltage-gated inwardly rectifying potassium channel KCNH2 (Homo sapiens, UniProt Q12809); assay: Inhibition of hERG by patch clamp method; assay type: toxicity
[5] = Permeability of compound at pH 7.4 by PAMPA assay; assay type: ADME; details: read-out: permeability
Hexokinase-4 [6] = molecular target: T1, Hexokinase-4; assay: Activation of recombinant human full length liver glucokinase expressed in Escherichia coli incubated for 10 mins in presence of 5 mM glucose by plate reader analysis
Hexokinase-4 [7] = molecular target: T1, Hexokinase-4; assay: Displacement of fluorescent labeled derivative from recombinant human hepatic glucokinase incubated for 30 mins in presence of 12 mM glucose by fluorescent polarization assay
Hexokinase-4 [8] = molecular target: T1, Hexokinase-4; assay: Activation of recombinant human full length liver glucokinase expressed in Escherichia coli incubated for 10 mins in presence of 2 mM glucose by plate reader analysis
Hexokinase-4 [9] = molecular target: T2, Hexokinase-4 (Mus musculus, UniProt P52792); assay: Activation of recombinant mouse full length liver glucokinase expressed in Escherichia coli incubated for 10 mins in presence of 12 mM glucose by plate reader analysis
T2 sequence (P52792 whole entry): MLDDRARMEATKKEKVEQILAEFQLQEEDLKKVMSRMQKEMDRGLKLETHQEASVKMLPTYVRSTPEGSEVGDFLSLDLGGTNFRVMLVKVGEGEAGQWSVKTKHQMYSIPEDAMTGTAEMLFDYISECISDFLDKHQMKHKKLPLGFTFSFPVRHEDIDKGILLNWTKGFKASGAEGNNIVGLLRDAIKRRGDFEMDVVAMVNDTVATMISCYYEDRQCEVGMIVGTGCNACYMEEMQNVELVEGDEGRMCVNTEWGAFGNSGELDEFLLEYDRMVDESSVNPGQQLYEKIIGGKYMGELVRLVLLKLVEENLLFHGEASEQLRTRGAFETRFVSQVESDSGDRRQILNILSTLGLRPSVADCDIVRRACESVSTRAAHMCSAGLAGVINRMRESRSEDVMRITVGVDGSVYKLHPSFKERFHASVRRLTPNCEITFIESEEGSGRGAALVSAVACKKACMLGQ

hERG (KCNH2) = hERG (KCNH2) (Homo sapiens, UniProt Q12809); assay: Inhibition of hERG at 10 uM by patch clamp method relative to control; assay type: toxicity
hERG (KCNH2), sequence (Q12809 whole entry): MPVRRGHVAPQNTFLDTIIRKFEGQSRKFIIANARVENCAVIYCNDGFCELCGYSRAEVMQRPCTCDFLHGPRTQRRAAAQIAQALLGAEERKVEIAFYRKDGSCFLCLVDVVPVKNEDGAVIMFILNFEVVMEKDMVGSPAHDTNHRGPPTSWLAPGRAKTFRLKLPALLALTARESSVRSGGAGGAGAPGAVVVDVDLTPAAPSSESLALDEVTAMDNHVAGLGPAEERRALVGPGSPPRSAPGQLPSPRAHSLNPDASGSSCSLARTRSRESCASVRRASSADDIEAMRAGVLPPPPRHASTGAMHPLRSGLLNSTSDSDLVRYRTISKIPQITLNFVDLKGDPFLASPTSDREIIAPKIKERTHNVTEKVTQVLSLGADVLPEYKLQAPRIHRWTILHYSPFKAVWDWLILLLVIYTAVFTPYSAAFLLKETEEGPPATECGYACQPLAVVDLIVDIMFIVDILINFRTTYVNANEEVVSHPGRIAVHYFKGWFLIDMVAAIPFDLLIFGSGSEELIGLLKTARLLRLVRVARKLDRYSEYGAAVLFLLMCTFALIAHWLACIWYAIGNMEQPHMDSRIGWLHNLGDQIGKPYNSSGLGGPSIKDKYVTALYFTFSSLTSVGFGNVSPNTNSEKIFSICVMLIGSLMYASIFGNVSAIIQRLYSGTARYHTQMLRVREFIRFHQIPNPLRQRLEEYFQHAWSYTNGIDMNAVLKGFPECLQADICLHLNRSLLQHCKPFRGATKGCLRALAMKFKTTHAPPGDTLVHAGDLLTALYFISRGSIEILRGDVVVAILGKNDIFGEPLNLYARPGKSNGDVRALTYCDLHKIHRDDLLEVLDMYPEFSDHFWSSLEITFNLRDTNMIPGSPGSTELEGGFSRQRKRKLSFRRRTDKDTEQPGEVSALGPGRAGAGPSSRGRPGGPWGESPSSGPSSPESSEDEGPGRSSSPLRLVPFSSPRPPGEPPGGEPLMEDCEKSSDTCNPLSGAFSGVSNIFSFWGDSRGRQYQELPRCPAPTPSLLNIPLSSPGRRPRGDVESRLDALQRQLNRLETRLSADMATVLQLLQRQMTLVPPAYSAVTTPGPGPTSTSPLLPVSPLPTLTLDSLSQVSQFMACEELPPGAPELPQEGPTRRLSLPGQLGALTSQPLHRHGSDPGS

Voltage-gated inwardly rectifying potassium channel KCNH2, sequence (Q12809 whole entry): as above

Row | EC50 (Hexokinase-4 [1]) | solubility [2] | remaining at 10 min, 0.5 µM [3] | Papp [5] | Compound | IC50 [4] | EC50 (Hexokinase-4 [6]) | IC50 (Hexokinase-4 [7]) | EC50 (Hexokinase-4 [8]) | EC50 (Hexokinase-4 [9]) | inhibition at 10 µM (hERG (KCNH2))
1 | 67 nM | 2 µg/mL (≈ 3.3 µM) | 46% | 51.6 ×10⁻⁶ cm/s | CCOP(=O)(Cn1ccc(NC(=O)c2cc(Oc3ccc(S(=O)(=O)N4CCC4)cc3)cc(OC(C)C)c2)n1)OCC | 33000 nM |  |  |  |  | 
2 | 25 nM | 39 µg/mL (≈ 68.2 µM) | 66% |  | CCOP(=O)(Cn1ccc(NC(=O)c2cc(Oc3ccc(C(=O)N4CCC4)nc3)cc(OC(C)C)c2)n1)OCC | > 80000 nM |  |  |  |  | 
3 | 28 nM |  | 94% | 53.4 ×10⁻⁶ cm/s | CCOP(=O)(Cn1ccc(NC(=O)c2cc(Oc3ccc(S(=O)(=O)CC)cc3)cc(OC(C)C)c2)n1)OCC |  |  |  |  |  | 
4 | 1240 nM | 409 µg/mL (≈ 714 µM) | 99% |  | CCOP(=O)(Cn1ccc(NC(=O)c2cc(Oc3ccc(C(=O)N4CCC4)nn3)cc(OC(C)C)c2)n1)OCC | > 80000 nM |  |  |  |  | 
5 | 656 nM |  | 100% |  | CCOP(=O)(Cn1ccc(NC(=O)c2cc(Oc3cnc(C(N)=O)cn3)cc(OC(C)C)c2)n1)OCC | > 80000 nM |  |  |  |  | 
6 | 148 nM | 980 µg/mL (≈ 1750 µM) | 99% |  | CCOP(=O)(Cn1ccc(NC(=O)c2cc(Oc3cnc(C(=O)N(C)C)cn3)cc(OC(C)C)c2)n1)OCC | > 80000 nM |  |  |  |  | 
7 | 679 nM | 96 µg/mL (≈ 179 µM) | 96% |  | COC[C@H](C)Oc1cc(Oc2ccc(S(C)(=O)=O)cc2)cc(C(=O)Nc2ccn(CP(C)(C)=O)n2)c1 | > 80000 nM |  |  |  |  | 
8 | 76 nM | 10 µg/mL (≈ 16.6 µM) | 93% | 38.2 ×10⁻⁶ cm/s | CCOP(=O)(Cn1ccc(NC(=O)c2cc(Oc3ccc(S(C)(=O)=O)cc3)cc(OC(CF)CF)c2)n1)OCC | 44000 nM |  |  |  |  | 
9 | 193 nM |  | 98% |  | CCOP(=O)(Cn1ccc(NC(=O)c2cc(Oc3cnc(C(=O)NC)cn3)cc(OC(C)C)c2)n1)OCC | > 80000 nM |  |  |  |  | 
10 | 87 nM | 1 µg/mL (≈ 1.71 µM) | 78% | 56 ×10⁻⁶ cm/s | CCOP(=O)(Cn1ccc(NC(=O)c2cc(Oc3ccc(S(C)(=O)=O)cc3)cc(O[C@@H](C)CF)c2)n1)OCC | > 80000 nM |  |  |  |  | 
11 | 49 nM | 5 µg/mL (≈ 8.38 µM) | 33% |  | CCOP(=O)(Cn1ncc(NC(=O)c2cc(Oc3ccc(S(C)(=O)=O)cc3)cc(O[C@@H](C)COC)c2)n1)OCC |  |  |  |  |  | 
12 | 24 nM |  | 96% | 47.1 ×10⁻⁶ cm/s | CCOP(=O)(Cn1ccc(NC(=O)c2cc(Oc3ccc(S(C)(=O)=O)nc3)cc(OC(C)C)c2)n1)OCC | > 80000 nM |  |  |  |  | 
13 | 234 nM | 471 µg/mL (≈ 830 µM) | 100% | 31.4 ×10⁻⁶ cm/s | CCOP(=O)(Cn1ccc(NC(=O)c2cc(Oc3cnc(S(C)(=O)=O)nc3)cc(OC(C)C)c2)n1)OCC | > 80000 nM |  |  |  |  | 
14 | 530 nM | 3830 µg/mL (≈ 6750 µM) | 100% | 25.5 ×10⁻⁶ cm/s | CCOP(=O)(Cn1ccc(NC(=O)c2cc(Oc3ccc(S(C)(=O)=O)nn3)cc(OC(C)C)c2)n1)OCC | > 80000 nM |  |  |  |  | 
15 | 188 nM | 298 µg/mL (≈ 521 µM) | 99% |  | CCOP(=O)(Cn1ccc(NC(=O)c2cc(Oc3ccc(C(=O)N4CCC4)cn3)cc(OC(C)C)c2)n1)OCC | > 80000 nM |  |  |  |  | 
16 | 159 nM |  | 91% | 44.5 ×10⁻⁶ cm/s | CCOP(=O)(Cn1ccc(NC(=O)c2cc(Oc3cnc(S(C)(=O)=O)cn3)cc(OC(C)C)c2)n1)OCC | > 80000 nM |  |  |  |  | 
17 | 79 nM | 7 µg/mL (≈ 12 µM) | 90% | 0.7 ×10⁻⁶ cm/s | CCOP(=O)(Cn1ccc(NC(=O)c2cc(Oc3ccc(S(C)(=O)=O)cc3)cc(O[C@@H](C)CO)c2)n1)OCC | > 80000 nM |  |  |  |  | 
18 | 32 nM | 3 µg/mL (≈ 5.05 µM) | 77% | 53.6 ×10⁻⁶ cm/s | CCOP(=O)(Cn1ccc(NC(=O)c2cc(Oc3ccc(S(=O)(=O)C(C)C)cc3)cc(OC(C)C)c2)n1)OCC | 30000 nM |  |  |  |  | 
19 | 98 nM |  | 82% | 8.4 ×10⁻⁶ cm/s | CCOP(=O)(Cn1ccc(NC(=O)c2cc(Oc3ccc(S(C)(=O)=O)cc3)cc(O[C@@H](CC)CO)c2)n1)OCC | > 80000 nM |  |  |  |  | 
20 | 48 nM | 1 µg/mL (≈ 1.77 µM) | 88% | 50.1 ×10⁻⁶ cm/s | CCOP(=O)(Cn1ccc(NC(=O)c2cc(Oc3ccc(S(C)(=O)=O)cc3)cc(OC(C)C)c2)n1)OCC | > 80000 nM |  |  |  |  | 
21 | 61 nM | 229 µg/mL (≈ 400 µM) | 99% |  | CCOP(=O)(Cn1ccc(NC(=O)c2cc(Oc3cnc(C(=O)N4CCC4)nc3)cc(OC(C)C)c2)n1)OCC | > 80000 nM |  |  |  |  | 

Row | Compound | EC50 (Hexokinase-4 [1]) | solubility [2] | remaining at 10 min, 0.5 µM [3] | Papp [5] | IC50 [4] | EC50 (Hexokinase-4 [6]) | IC50 (Hexokinase-4 [7]) | EC50 (Hexokinase-4 [8]) | EC50 (Hexokinase-4 [9]) | inhibition at 10 µM (hERG (KCNH2))
22 | CCOP(=O)(Cn1ccc(NC(=O)c2cc(Oc3ccc(S(C)(=O)=O)cc3)cc(O[C@@H](C)COC)c2)n1)OCC | 75 nM | 240 µg/mL (≈ 403 µM) | 11% |  | > 80000 nM |  |  |  |  | 
23 | CCO[P@](C)(=O)Cn1ccc(NC(=O)c2cc(Oc3ccc(S(C)(=O)=O)cc3)cc(O[C@@H](C)COC)c2)n1 | 169 nM | 547 µg/mL (≈ 967 µM) | 81% |  | > 80000 nM |  |  |  |  | 
24 | CCOP(=O)(Cc1cnc(NC(=O)c2cc(Oc3ccc(S(C)(=O)=O)cc3)cc(O[C@@H](C)COC)c2)cn1)OCC | 164 nM | 161 µg/mL (≈ 265 µM) | 54% |  | > 80000 nM |  |  |  |  | 
25 | CCOP(=O)(Cc1csc(NC(=O)c2cc(Oc3ccc(S(C)(=O)=O)cc3)cc(O[C@@H](C)COC)c2)n1)OCC | 38 nM | 16 µg/mL (≈ 26.1 µM) | 4% |  | 50000 nM | 64 nM | 122 nM | 185 nM | 42 nM | 60%
